Measured values reported in patent publication US12180187B2, “1-phenyl-5-azinylpyrazolyl-3-oxyalkyl acids and their use for controlling unwanted plant growth” (BAYER AKTIENGESELLSCHAFT, priority 2019, dated 2024).

Experiments:
ECHCG [1] = assay: Post-emergence action against ECHCG, 1.28 kg/ha; format: in vivo, Echinochloa crus-galli; details: dosage 1280 g/ha, visual rating about 3 weeks after treatment vs untreated controls
How it was run: (§1)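 Visual rating against untreated plants about 3 weeks after spraying gives % activity, where 0% means like controls and 100% means plants died. Plants were treated post-emergence at the one-leaf stage with compound formulated as wettable powder or emulsion concentrate, applied at 600 L water/ha plus 0.5% additive.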

LOLRI [2] = assay: Pre-emergence action against LOLRI, 1280 g/ha; format: in vivo, Lolium rigidum; details: visual scoring after about 3 weeks vs untreated controls, 100% = plants have died, 0% = like control plants
How it was run: (§2)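 Each pot was doubly sown in sandy loam and covered, then its soil surface was treated with compound suspension or emulsion containing 0.5% additive at 600 L/ha water. Plants grew in a greenhouse; effect was rated visually as percentages versus controls after about 3 weeks.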

AMARE [3] = assay: Pre-emergence action against AMARE, 1280 g/ha; format: in vivo, Amaranthus retroflexus; details: scored visually after about 3 weeks vs untreated controls (100% = plants have died)
How it was run: as §2

VERPE [4] = assay: Pre-emergence action at 320 g/ha against VERPE; format: in vivo, Veronica persica; details: visual scoring after about 3 weeks vs untreated controls
How it was run: (§3)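 Compounds were sprayed onto soil over sown seeds as emulsions or suspensions with 0.5% additive at a water rate of 600 l/ha. After about 3 weeks in the greenhouse, effect was rated visually as percent (100% = died).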

SETVI [5] = assay: Pre-emergence action against SETVI, 1280 g/ha; format: in vivo, Setaria viridis; details: visual scoring after about 3 weeks vs untreated controls, 100% = plants have died, 0% = like control plants
How it was run: as §2

DIGSA [6] = assay: Post-emergence action against DIGSA, 1.28 kg/ha; format: in vivo, Digitaria sanguinalis; details: dosage 1280 g/ha, visual rating about 3 weeks after treatment vs untreated controls
How it was run: as §1

POAAN [7] = assay: Post-emergence action against POAAN, 1.28 kg/ha; format: in vivo, Poa annua; details: dosage 1280 g/ha, visual rating about 3 weeks after treatment vs untreated controls
How it was run: as §1

MATIN [8] = assay: Pre-emergence action against MATIN, 1280 g/ha; format: in vivo, Tripleurospermum inodorum (Matricaria inodora); details: scored visually after about 3 weeks vs untreated controls (100% = plants have died)
How it was run: as §2

ABUTH [9] = assay: Post-emergence action against ABUTH, 1.28 kg/ha; format: in vivo, Abutilon theophrasti; details: dosage 1280 g/ha, visual rating about 3 weeks after treatment vs untreated controls (100% = plants died)
How it was run: as §1

MATIN [10] = assay: Pre-emergence action at 320 g/ha against MATIN; format: in vivo, Tripleurospermum inodorum (Matricaria inodora); details: visual scoring after about 3 weeks vs untreated controls
How it was run: as §3

POAAN [11] = assay: Pre-emergence action against POAAN, 1280 g/ha; format: in vivo, Poa annua; details: visual scoring after about 3 weeks vs untreated controls, 100% = plants have died, 0% = like control plants
How it was run: as §2

ALOMY [12] = assay: Post-emergence action against ALOMY, 1.28 kg/ha; format: in vivo, Alopecurus myosuroides; details: dosage 1280 g/ha, visual rating about 3 weeks after treatment vs untreated controls
How it was run: as §1

DIGSA [13] = assay: Pre-emergence action against DIGSA, 1280 g/ha; format: in vivo, Digitaria sanguinalis; details: visual scoring after about 3 weeks vs untreated controls, 100% = plants have died, 0% = like control plants
How it was run: as §2

VERPE [14] = assay: Pre-emergence action against VERPE, 1280 g/ha; format: in vivo, Veronica persica; details: scored visually after about 3 weeks vs untreated controls (100% = plants have died)
How it was run: as §2

ABUTH [15] = assay: Pre-emergence action at 320 g/ha against ABUTH; format: in vivo, Abutilon theophrasti; details: greenhouse, scored visually after about 3 weeks vs untreated controls, 100% = plants have died, 0% = like control plants
Source text: b) Seeds of monocotyledonous and dicotyledonous weed plants and crop plants are placed in plastic or organic planting pots and covered with soil. The compounds of the invention, formulated in the form of wettable powders (WP) or as emulsion concentrates (EC), are then applied onto the surface of the covering soil as aqueous suspension or emulsion with addition of 0.5% additive at a water application rate of 600 l/ha (converted). After the treatment, the pots are placed in a greenhouse and kept under good growth conditions for the trial plants. After about 3 weeks, the effect of the preparations is scored visually in comparison with untreated controls as percentages. For example, 100% activity=the plants have died, 0% activity=like control plants. Tables 13 to 26 below show the effects of selected compounds of the general formula (I) on various harmful plants and at an application rate corresponding to 320 g/ha, which were obtained by the experimental procedure mentioned above.

ECHCG [16] = assay: Pre-emergence action against ECHCG, 1280 g/ha; format: in vivo, Echinochloa crus-galli; details: visual scoring after about 3 weeks vs untreated controls, 100% = plants have died, 0% = like control plants
How it was run: as §2

LOLRI [17] = assay: Pre-emergence action at 320 g/ha against LOLRI; format: in vivo, Lolium rigidum; details: visual scoring after about 3 weeks vs untreated controls
How it was run: as §3

AMARE [18] = assay: Pre-emergence action at 320 g/ha against AMARE; format: in vivo, Amaranthus retroflexus; details: visual scoring after about 3 weeks vs untreated controls
How it was run: as §3

SETVI [19] = assay: Pre-emergence action at 320 g/ha against SETVI; format: in vivo, Setaria viridis; details: visual scoring after about 3 weeks vs untreated controls
How it was run: as §3

ALOMY [20] = assay: Pre-emergence action against ALOMY, 1280 g/ha; format: in vivo, Alopecurus myosuroides; details: visual scoring after about 3 weeks vs untreated controls, 100% = plants have died, 0% = like control plants
How it was run: as §2

STEME = assay: Pre-emergence action against STEME, 1280 g/ha; format: in vivo, Stellaria media; details: scored visually after about 3 weeks vs untreated controls (100% = plants have died)
How it was run: as §2

AMARE [21] = assay: Post-emergence action against AMARE, 1.28 kg/ha; format: in vivo, Amaranthus retroflexus; details: dosage 1280 g/ha, visual rating about 3 weeks after treatment vs untreated controls (100% = plants died)
How it was run: as §1

ALOMY [22] = assay: Pre-emergence action at 320 g/ha against ALOMY; format: in vivo, Alopecurus myosuroides; details: scored visually after about 3 weeks vs untreated controls (100% = plants have died)
How it was run: as §3

VIOTR = assay: Pre-emergence action at 320 g/ha against VIOTR; format: in vivo, Viola tricolor; details: dosage 320 g/ha
How it was run: as §3

VERPE [23] = assay: Post-emergence action against VERPE, 1.28 kg/ha; format: in vivo, Veronica persica; details: dosage 1280 g/ha, visual rating about 3 weeks after treatment vs untreated controls (100% = plants died)
How it was run: as §1

DIGSA [24] = assay: Pre-emergence action at 320 g/ha against DIGSA; format: in vivo, Digitaria sanguinalis; details: visual scoring after about 3 weeks vs untreated controls
How it was run: as §3

LOLRI [25] = assay: Post-emergence action against LOLRI, 1.28 kg/ha; format: in vivo, Lolium rigidum; details: dosage 1280 g/ha, visual rating about 3 weeks after treatment vs untreated controls
How it was run: as §1

ECHGC = assay: Pre-emergence action at 320 g/ha against ECHGC; format: in vivo, Echinochloa crus-galli; details: visual scoring after about 3 weeks vs untreated controls
How it was run: as §3

POLCO = assay: Pre-emergence action at 320 g/ha against POLCO; format: in vivo, Fallopia convolvulus (Polygonum convolvulus); details: visual scoring after about 3 weeks vs untreated controls
How it was run: as §3

AVEFA = assay: Pre-emergence action at 320 g/ha against AVEFA; format: in vivo; details: visual scoring after about 3 weeks vs untreated controls
How it was run: as §3

PHBPU = assay: Pre-emergence action at 320 g/ha against PHBPU; format: in vivo; details: visual scoring after about 3 weeks vs untreated controls
How it was run: as §3

SMILES | Pre-emergence action against VERPE in % (VERPE [4]) [%] | Pre-emergence action against MATIN in % (MATIN [10]) [%] | Pre-emergence action at 320 g/ha against ABUTH in % (ABUTH [15]) [%] | Pre-emergence action against LOLRI in % (LOLRI [17]) [%] | Pre-emergence action against AMARE in % (AMARE [18]) [%] | Pre-emergence action against SETVI in % (SETVI [19]) [%] | Pre-emergence action at 320 g/ha against ALOMY in % (ALOMY [22]) [%] | Pre-emergence action against VIOTR in % (VIOTR) [%] | Pre-emergence action against DIGSA in % (DIGSA [24]) [%] | Pre-emergence action against ECHGC in % (ECHGC) [%] | Pre-emergence action against POLCO in % (POLCO) [%] | Pre-emergence action against AVEFA in % (AVEFA) [%] | Pre-emergence action against PHBPU in % (PHBPU) [%] | other results
CON(C)C(=O)COc1nn(-c2ccccc2F)c(-c2ccc(F)nc2)c1Br [Example X-019] | 100 | 100 | 80 | 100 | 100 | 100 | 100 | 100 | 100 | 100 | 90 | 80 | – | Post-emergence action against ECHCG (ECHCG [1]): 100%; Pre-emergence action against LOLRI (LOLRI [2]): 100%; Pre-emergence action against AMARE (AMARE [3]): 100%; Pre-emergence action against SETVI (SETVI [5]): 100%; Post-emergence action against DIGSA (DIGSA [6]): 90%; Post-emergence action against POAAN (POAAN [7]): 100%; Pre-emergence action against MATIN (MATIN [8]): 100%; Post-emergence action against ABUTH (ABUTH [9]): 90%; Pre-emergence action against POAAN (POAAN [11]): 100%; Post-emergence action against ALOMY (ALOMY [12]): 100%; Pre-emergence action against DIGSA (DIGSA [13]): 100%; Pre-emergence action against VERPE (VERPE [14]): 90%; Pre-emergence action against ECHCG (ECHCG [16]): 100%; Pre-emergence action against ALOMY (ALOMY [20]): 100%; Pre-emergence action against STEME (STEME): 90%; Post-emergence action against AMARE (AMARE [21]): 90%; Post-emergence action against VERPE (VERPE [23]): 90%; Post-emergence action against LOLRI (LOLRI [25]): 90%
COC(=O)[C@@H](C)Oc1nn(-c2cc(F)ccc2F)c(-c2cncc(F)c2)c1I [VII-135] | 100 | 90 | 80 | 100 | 100 | 100 | 100 | 100 | – | 90 | 100 | 90 | 90 | –
CCOC(=O)CN(C)S(=O)(=O)NC(=O)COc1nn(-c2ccccc2F)c(-c2ccc(F)nc2)c1Br [Example X-031] | 90 | 80 | 80 | 80 | 90 | 100 | 90 | 90 | 100 | 80 | 80 | 80 | 90 | –
CCOC(=O)[C@@H](C)Oc1nn(-c2cc(F)ccc2F)c(-c2cncc(F)c2)c1Br [VII-136] | 100 | 90 | 80 | 90 | 100 | 100 | 100 | 100 | – | 90 | 100 | 90 | 90 | –
